According to ChEMBL document CHEMBL4732195, “Promising hit compounds against resistant trichomoniasis: Synthesis and antiparasitic activity of 3-(ω-aminoalkoxy)-1-benzyl-5-nitroindazoles” (Bioorg Med Chem Lett, 2021):

Tests used:
Trichomonas vaginalis [1] = experiment: Antimicrobial activity against Trichomonas vaginalis JH31A#4 trophozoites assessed as reduction in parasitic growth incubated for 24 hrs by resazurin dye based fluorescence assay; type: functional, organism-based; details: JH31A#4, 24 h
[2] = Cytotoxicity against African green monkey Vero cells; type: cell-based; details: chlorocebus sabaeus
Trichomonas vaginalis [3] = experiment: Antimicrobial activity against Trichomonas vaginalis IR78 trophozoites assessed as reduction in parasitic growth incubated for 24 hrs by resazurin dye based fluorescence assay; type: functional, organism-based; details: IR78, 24 h
[4] = Selectivity index, ratio of CC50 for African green monkey Vero cells to IC50 for Trichomonas vaginalis IR78 trophozoites; type: toxicity; details: read-out: Ratio CC50/IC50
[5] = Selectivity index, ratio of CC50 for African green monkey Vero cells to IC50 for Trichomonas vaginalis JH31A#4 trophozoites; type: toxicity; details: read-out: Ratio CC50/IC50

## O=[N+]([O-])c1ccc2c(c1)c(OCCN1CCCCC1)nn2Cc1ccccc1
Trichomonas vaginalis [1]
  IC50: 265 µM

## NCCOc1nn(Cc2ccccc2)c2ccc([N+](=O)[O-])cc12
[2]
  CC50: > 300 µM
Trichomonas vaginalis [3]
  IC50: 14.3 µM
Trichomonas vaginalis [1]
  IC50: 10.5 µM
[4]
  selectivity ratio: > 21
[5]
  selectivity ratio: > 28.6

## O=[N+]([O-])c1ccc2c(c1)c(OCCBr)nn2Cc1ccccc1
Trichomonas vaginalis [1]
  IC50: > 300 µM

## O=[N+]([O-])c1ccc2c(c1)c(OCCCCCN1CCCCC1)nn2Cc1ccccc1
Trichomonas vaginalis [1]
  IC50: 69 µM

## CN(C)CCCOc1nn(Cc2ccccc2)c2ccc([N+](=O)[O-])cc12
Trichomonas vaginalis [1]
  IC50: 63.7 µM

## NCCCCCOc1nn(Cc2ccccc2)c2ccc([N+](=O)[O-])cc12
[2]
  CC50: 57.7 µM
Trichomonas vaginalis [3]
  IC50: 59.1 µM
Trichomonas vaginalis [1]
  IC50: 4.2 µM
[4]
  selectivity ratio: 1
[5]
  selectivity ratio: 13.7

## CN(C)CCOc1nn(Cc2ccccc2)c2ccc([N+](=O)[O-])cc12
Trichomonas vaginalis [1]
  IC50: 207 µM

## CNCCCCCOc1nn(Cc2ccccc2)c2ccc([N+](=O)[O-])cc12
[2]
  CC50: 24 µM
Trichomonas vaginalis [3]
  IC50: 0.5 µM
Trichomonas vaginalis [1]
  IC50: 2.5 µM
[4]
  selectivity ratio: 48
[5]
  selectivity ratio: 9.6

## CN(C)CCCCCOc1nn(Cc2ccccc2)c2ccc([N+](=O)[O-])cc12
[2]
  CC50: 52.3 µM
Trichomonas vaginalis [3]
  IC50: 55.9 µM
Trichomonas vaginalis [1]
  IC50: 6.5 µM
[4]
  selectivity ratio: 0.94
[5]
  selectivity ratio: 8

## O=C1c2ccccc2C(=O)N1CCCOc1nn(Cc2ccccc2)c2ccc([N+](=O)[O-])cc12
Trichomonas vaginalis [1]
  IC50: 70.3 µM

## O=[N+]([O-])c1ccc2c(c1)c(OCCCCCBr)nn2Cc1ccccc1
Trichomonas vaginalis [1]
  IC50: > 300 µM

## NCCCOc1nn(Cc2ccccc2)c2ccc([N+](=O)[O-])cc12
[2]
  CC50: 46.3 µM
Trichomonas vaginalis [3]
  IC50: 1.3 µM
Trichomonas vaginalis [1]
  IC50: 19.2 µM
[4]
  selectivity ratio: 35.6
[5]
  selectivity ratio: 2.4

## CNCCOc1nn(Cc2ccccc2)c2ccc([N+](=O)[O-])cc12
[2]
  CC50: 171 µM
Trichomonas vaginalis [3]
  IC50: 74.7 µM
Trichomonas vaginalis [1]
  IC50: 16.3 µM
[4]
  selectivity ratio: 2.3
[5]
  selectivity ratio: 10.5

## O=[N+]([O-])c1ccc2c(c1)c(OCCCN1CCCCC1)nn2Cc1ccccc1
Trichomonas vaginalis [1]
  IC50: 104 µM

## Cc1ncc([N+](=O)[O-])n1CCO [METRONIDAZOLE]
[2]
  CC50: > 300 µM
Trichomonas vaginalis [3]
  IC50: 3 µM
Trichomonas vaginalis [1]
  IC50: 1.7 µM
[4]
  selectivity ratio: > 100
[5]
  selectivity ratio: > 176

## O=C1c2ccccc2C(=O)N1CCOc1nn(Cc2ccccc2)c2ccc([N+](=O)[O-])cc12
Trichomonas vaginalis [1]
  IC50: 282 µM
